Data reported in ChEMBL document CHEMBL1201862, “PubChem BioAssay data set” (2004).
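In this assay, cells in 96-well plates receive the compound at five concentrations for 48 hours. Endpoints are linearly interpolated between the surrounding concentrations. GI50 is the concentration that inhibits growth by half.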 Active and inactive are the calls of the source. No stated cut-off is given here; in the data, active = GI50 up to about 1.1 µM and inactive = higher.

What was measured:
Test in all cases: DTP human tumour cell line panel, 48 h
OVCAR-5 = test system: OVCAR-5
SN12C = test system: SN12C
UACC-257 = test system: UACC-257
786-0 = test system: 786-0
EKVX = test system: EKVX
UACC-62 = test system: UACC-62
OVCAR-4 = test system: OVCAR-4
OVCAR-8 = test system: OVCAR-8
SK-MEL-28 = test system: SK-MEL-28
SK-MEL-2 = test system: SK-MEL-2
A549 = test system: A549
A498 = test system: A498
SNB-19 = test system: SNB-19
RXF 393 = test system: RXF 393
DLD-1 = test system: DLD-1
NCI-H460 = test system: NCI-H460
SF-268 = test system: SF-268
HOP-18 = test system: HOP-18
IGROV-1 = test system: IGROV-1
SK-MEL-5 = test system: SK-MEL-5
HOP-92 = test system: HOP-92
HCT-116 = test system: HCT-116
CAKI-1 = test system: CAKI-1
NCI-H23 = test system: NCI-H23
SNB-75 = test system: SNB-75
M19-MEL = test system: M19-MEL
SF-295 = test system: SF-295
SW-620 = test system: SW-620
XF498 = test system: XF498
U-251 = test system: U-251
HT-29 = test system: HT-29
Malme-3M = test system: Malme-3M
COLO 205 = test system: COLO 205
TK-10 = test system: TK-10
KM12 = test system: KM12
OVCAR-3 = test system: OVCAR-3
LOX IMVI = test system: LOX IMVI
SNB-78 = test system: SNB-78
HOP-62 = test system: HOP-62
NCI-H226 = test system: NCI-H226
SF-539 = test system: SF-539
ACHN = test system: ACHN
HL-60 = test system: HL-60
NCI-H522 = test system: NCI-H522
CCRF-CEM = test system: CCRF-CEM
DMS-273 = test system: DMS-273
KM-20L2 = test system: KM-20L2
SR = test system: SR
K562 = test system: K562
HCC 2998 = test system: HCC 2998
SK-OV-3 = test system: SK-OV-3
MOLT-4 = test system: MOLT-4
RPMI-8226 = test system: RPMI-8226
DMS-114 = test system: DMS-114
HCT-15 = test system: HCT-15
M14 = test system: M14
LXFL 529 = test system: LXFL 529
UO-31 = test system: UO-31

Measured: GI50

CCCCCCCCCCCCCCC(C)CCC(=O)O (stereo unspecified)
inactive: OVCAR-5 > 100 µM | SN12C > 100 µM | UACC-257 > 100 µM | 786-0 80.9 µM | EKVX > 100 µM | UACC-62 78.9 µM | OVCAR-4 > 100 µM | OVCAR-8 > 100 µM | SK-MEL-28 > 100 µM | SK-MEL-2 60 µM | A549 > 100 µM | A498 > 100 µM | SNB-19 > 100 µM | RXF 393 > 100 µM | DLD-1 > 100 µM | NCI-H460 31.9 µM | SF-268 > 100 µM | HOP-18 > 100 µM | IGROV-1 > 100 µM | SK-MEL-5 > 100 µM | HOP-92 62.5 µM | HCT-116 36.8 µM | CAKI-1 > 100 µM | NCI-H23 > 100 µM | SNB-75 > 100 µM | M19-MEL 47.2 µM | SF-295 > 100 µM | SW-620 > 100 µM | XF498 59.4 µM | U-251 52.5 µM | HT-29 34.5 µM | Malme-3M > 100 µM | COLO 205 44 µM | TK-10 > 100 µM | KM12 49.8 µM | OVCAR-3 68.7 µM | LOX IMVI 31.6 µM | SNB-78 > 100 µM | HOP-62 > 100 µM | NCI-H226 > 100 µM | SF-539 48.9 µM | ACHN > 100 µM

CCCNc1ncnc2c1cnn2C
inactive: HL-60 > 100 µM | OVCAR-5 > 100 µM | SN12C > 100 µM | UACC-257 > 100 µM | 786-0 > 100 µM | UACC-62 > 100 µM | OVCAR-4 > 100 µM | OVCAR-8 > 100 µM | SK-MEL-28 > 100 µM | NCI-H522 > 100 µM | SK-MEL-2 > 100 µM | A549 > 100 µM | A498 > 100 µM | SNB-19 > 100 µM | NCI-H460 > 100 µM | SF-268 > 100 µM | CCRF-CEM > 100 µM | HOP-18 > 100 µM | IGROV-1 > 100 µM | SK-MEL-5 > 100 µM | DMS-273 > 100 µM | KM-20L2 > 100 µM | SR > 100 µM | HOP-92 > 100 µM | HCT-116 > 100 µM | K562 > 100 µM | CAKI-1 > 100 µM | HCC 2998 > 100 µM | NCI-H23 > 100 µM | SK-OV-3 > 100 µM | MOLT-4 > 100 µM | SNB-75 51.3 µM | M19-MEL > 100 µM | SF-295 > 100 µM | RPMI-8226 > 100 µM | SW-620 > 100 µM | XF498 > 100 µM | U-251 > 100 µM | HT-29 > 100 µM | Malme-3M > 100 µM | COLO 205 > 100 µM | TK-10 > 100 µM | DMS-114 > 100 µM | KM12 > 100 µM | OVCAR-3 > 100 µM | LOX IMVI > 100 µM | SNB-78 > 100 µM | HOP-62 > 100 µM | NCI-H226 > 100 µM | SF-539 > 100 µM | M14 > 100 µM | ACHN > 100 µM
> 100 µM: HCT-15

CC(=O)OC1CC2C(C)(C)OC(=O)CC(OC(C)=O)[C@]2(C)C2CCC3(C)C(=CCC3[C@H]3COC(=O)C3)[C@]12C (stereo partly specified)
inactive: HL-60 50.1 µM | OVCAR-5 > 100 µM | SN12C > 100 µM | 786-0 > 100 µM | EKVX 65.5 µM | UACC-62 97.7 µM | OVCAR-4 > 100 µM | OVCAR-8 > 100 µM | SK-MEL-28 42.6 µM | NCI-H522 83.4 µM | SK-MEL-2 72.3 µM | A549 55.6 µM | A498 96.4 µM | SNB-19 > 100 µM | RXF 393 > 100 µM | DLD-1 71.6 µM | NCI-H460 > 100 µM | SF-268 > 100 µM | CCRF-CEM 23.5 µM | IGROV-1 > 100 µM | SK-MEL-5 > 100 µM | DMS-273 88.9 µM | KM-20L2 > 100 µM | SR 24 µM | HOP-92 26.1 µM | HCT-116 61.5 µM | K562 43.9 µM | CAKI-1 > 100 µM | HCC 2998 > 100 µM | NCI-H23 > 100 µM | SK-OV-3 > 100 µM | MOLT-4 24.5 µM | SNB-75 46.6 µM | M19-MEL 80.2 µM | SF-295 41.5 µM | RPMI-8226 47.1 µM | SW-620 > 100 µM | XF498 > 100 µM | LXFL 529 51.8 µM | U-251 > 100 µM | HT-29 60.5 µM | Malme-3M > 100 µM | COLO 205 > 100 µM | TK-10 > 100 µM | DMS-114 70.1 µM | KM12 > 100 µM | OVCAR-3 94 µM | LOX IMVI > 100 µM | UO-31 > 100 µM | SNB-78 > 100 µM | HOP-62 > 100 µM | NCI-H226 > 100 µM | SF-539 > 100 µM | M14 32.7 µM | ACHN > 100 µM
> 100 µM: HCT-15
